# Laboratory results from patent publication US20160346255A1, “METHODS, AGENTS AND COMPOSITIONS FOR TREATMENT OF INFLAMMATORY CONDITIONS” (Betanien Hospital, priority 2014, published 2016).
# Non-standard residues stand in square brackets, D forms with d. Residues, ends and D or L forms follow the SMILES beside them. *: point of attachment. dPhe(4-NHCONH2) = NC(=O)Nc1ccc(C[C@@H](N)C(=O)O)cc1; Dihydroorotyl(S) = O=C1C[C@@H](C(=O)*)NC(=O)N1; dPhe(4-Cl) = N[C@H](Cc1ccc(Cl)cc1)C(=O)O; Phe(4-NH2) = Nc1ccc(C[C@H](N)C(=O)O)cc1; d2Nal = N[C@H](Cc1ccc2ccccc2c1)C(=O)O; Lys(iPr) = CC(C)NCCCC[C@H](N)C(=O)O; d3Pal = N[C@H](Cc1cccnc1)C(=O)O
# Assays:
# Format in all cases: in vivo, human
# [1] = tested on: patients 1 and 2 (rheumatoid arthritis); test: Hip bone mineral density in patients taking a GnRH antagonist
# Text: However, our data indicates the opposite.
# Patient with Lupus = test: Lupus patient treated with degarelix (and earlier therapies)
# Description: Example of Treating a Patient with Lupus with a GnRH Antagonist
# Due to their painful condition, they have been followed up by a pain clinic. They were offered a tricyclic antidepressant, amitriptyline 25 mg in March 2014 for their painful condition.
# Therefore, we decided to offer […] degarelix. GnRH antagonists have shown anti-inflammatory effects and therefore we considered that degarelix, a depot GnRH antagonist, may have a therapeutic effect in lupus. 09.15.14, […] received […] loading dose of degarelix, 240 mg s.c.
# They received their second dose of degarelix in October 2014, 80 mg s.c. They continue on 80 mg s.c. every two weeks.
# [2] = tested on: Patient with Inflammatory Bowel Disease; test: Inflammatory bowel disease (colitis) patient treated with degarelix
# Description: • person, diagnosed with colitis • Inflammatory bowel disease, colitis verified on colonic biopsy sample. Patients with inflammatory colitis usually have a higher incidence of autoimmune diseases. This patient also had ankylosing spondylitis. • September 2014 received first dose of degarelix 240 mg s.c. • Received degarelix 80 mg s.c. approximately every two weeks thereafter. • The inflammatory bowel diseases (IBDs), Crohn's disease and ulcerative colitis, are chronic relapsing, remitting disorders. The assessment of disease activity presents challenges to clinicians. Fecal biomarkers, such as fecal calprotectin, are a non-invasive method which can be used to aid managing clinicians. Calprotectin is released extracellularly in times of cell stress or damage and can be detected within feces and thus be used as a sensitive marker of intestinal inflammation. […] Fecal calprotectin levels are elevated in patients with both Crohn's disease and ulcerative colitis (1-2). There have been several studies looking at the use of fecal calprotectin to predict or monitor response to treatment. • In a study looking at 11 patients with relapsing IBD, fecal calprotectin was analysed at inclusion and after 8 weeks of treatment. Treatment was individualized medical therapy. A normalized fecal calprotectin concentration at 8 weeks predicted a complete response in 100% of patients (3), corresponding to endoscopic mucosal healing (4). It has been shown that in patients with steroid induced clinical remission fecal calprotectin levels can remain elevated (5-6). […] A level of <50 mg/kg is considered normal or remission for IBD. • There is no gold standard index in the measurement of colitis disease activity in clinical trials. Due to the invasive nature of endoscopies, the Mayo non-invasive colitis assessment of response score can be used to assess treatment effect of IBD in clinical trials (9-11). […] Both the partial Mayo and total Mayo score are used to assess disease activity in clinical trials (13). The partial Mayo score also had good discriminatory value between subjects in remission and those with active disease (14). A clinical response has been defined as a 3 point or greater change in the partial Mayo score (15).
# [3] = tested on: Patients with Rheumatoid Arthritis; test: Rheumatoid arthritis patients treated with degarelix: clinical variables
# Text: Examples of Treating Patients with Rheumatoid Arthritis with a GnRH Antagonist [table] […] Examples of Patients with Continued RA Improvement Over Several Weeks Despite Stably Low Levels of LH
# [4] = Patient 2, 15 weeks, baseline 17
# [5] = Patient 2, 15 weeks, baseline 90
compound,measurement,setting,value
CC(=O)N[C@H](Cc1ccc2ccccc2c1)C(=O)N[C@H](Cc1ccc(Cl)cc1)C(=O)N[C@H](Cc1cccnc1)C(=O)N[C@@H](CO)C(=O)N[C@@H](Cc1ccc(NC(=O)[C@@H]2CC(=O)NC(=O)N2)cc1)C(=O)N[C@H](Cc1ccc(NC(N)=O)cc1)C(=O)N[C@@H](CC(C)C)C(=O)N[C@@H](CCCCNC(C)C)C(=O)N1CCC[C@H]1C(=O)N[C@H](C)C(N)=O [degarelix] (Ac-[d2Nal][dPhe(4-Cl)][d3Pal]S[Phe(4-NH2)](Dihydroorotyl(S))[dPhe(4-NHCONH2)]L[Lys(iPr)]P[dA]-NH2),Bone mineral density in hips,"[1]; Patient 1, first time in 3.5 years, no osteoporosis therapy (FIG. 9)",improvement
same,Bone mineral density in hips,"[1]; Patient 2, first time in 4.5 years (FIG. 10)",improvement
same,Total urinary protein,"Patient with Lupus; 7 Nov. 2014, 15 Sep. 2014 0.78",0.17 g/L
same,LH (<12),"Patient with Lupus; 7 Nov. 2014, 15 Sep. 2014 11",<0.3
same,FSH (<12),"Patient with Lupus; 7 Nov. 2014, 15 Sep. 2014 14",<0.1
same,ANA (<1),"Patient with Lupus; 7 Nov. 2014, 15 Sep. 2014 >32 out of range",26↑
same,Total urinary protein,"Patient with Lupus; 14 Oct. 2014, 15 Sep. 2014 0.78",0.15 ^2 g/L
same,FSH (<12),"Patient with Lupus; 14 Oct. 2014, 15 Sep. 2014 14",<0.1
same,ANA (<1),"Patient with Lupus; 14 Oct. 2014, 15 Sep. 2014 >32 out of range",28↑
same,Total urinary protein,"Patient with Lupus; 23 Sep. 2014, 15 Sep. 2014 0.78",0.75 ↑ g/L
same,LH (<12),"Patient with Lupus; 23 Sep. 2014, 15 Sep. 2014 11",<0.3
same,FSH (<12),"Patient with Lupus; 23 Sep. 2014, 15 Sep. 2014 (loading dose day) 14",2
same,ANA (<1),"Patient with Lupus; 25 Sep. 2014, 15 Sep. 2014 >32 out of range",31 ↑
same,Parasthesias,"Patient with Lupus; by 1 month of treatment, balance improved",no longer has parasthesias
same,Proteinuria,"Patient with Lupus; by 1 month, still in remission at 2 months",complete remission
same,Morning pain,"Patient with Lupus; by 8 weeks, before 3.5 hours",0 h
same,Morning pain,"Patient with Lupus; by day 5, before 3.5 hours",1.5 h
same,Morning pain,"Patient with Lupus; by day 10, before 3.5 hours",0 h
same,Ulcers on toes and hands,Patient with Lupus; by day 10 of treatment,several ulcers had healed
same,Foot erythema,Patient with Lupus; week 8 (FIG. 8),decreased
same,Fecal calprotectin (<50 normal),"[2]; 2 Oct. 2014, normal","48, normal mg/kg"
same,Fecal calprotectin (<50 normal),"[2]; 10 Jan. 2015, normal","32, normal mg/kg"
same,Fecal calprotectin (<50 normal),"[2]; 24 Sep. 2014 (started 10.09.14), high","79, high mg/kg"
same,Partial Mayo score,"[2]; at 12 weeks, baseline 3",0
same,"Function score (Good <1), final","[3]; Patient 1, 28 weeks, baseline 1.25","1.25, 0"
same,"Morning stiffness, final","[3]; Patient 1, 28 weeks, baseline 2.5","2.5, 0 hrs"
same,"Swollen joint count assessed with ultrasound, final","[3]; Patient 1, 28 weeks, baseline 6","6, 0"
same,"Tender joint, final","[3]; Patient 1, 28 weeks, baseline 9","9, 0"
same,"Patient own assessment (0-100), final","[3]; Patient 1, 28 weeks, baseline 81","81, 0"
same,"Physician assessment (0-100), final","[3]; Patient 1, 28 weeks, baseline 85","85, 7"
same,ACR % Response,"[3]; Patient 1, treatment duration 28 weeks",90%
same,"Function score (Good <1), final","[3]; Patient 2, 15 weeks, baseline 2.0","2.0, 0.25"
same,"Morning stiffness, final","[3]; Patient 2, 15 weeks, baseline 9","9, 1 hrs"
same,"Swollen joint count assessed with ultrasound, final",[3]; [4],"17, 2"
same,"Tender joint, final",[3]; [4],"17, 3"
same,"Patient own assessment (0-100), final",[3]; [5],"90, 35"
same,"Physician assessment (0-100), final",[3]; [5],"90, 40"
same,ACR % Response,"[3]; Patient 2, treatment duration 15 weeks",60%
same,ACR % Response,"[3]; Patient 3, 4 wks",30%
same,ACR % Response,"[3]; Patient 3, 8 wks",40%
same,"Function score (Good <1), final","[3]; Patient 3, 12 weeks, baseline 1.75","1.75, 0.63"
same,"Morning stiffness, final","[3]; Patient 3, 12 weeks, baseline 7","7, ½"
same,"Swollen joint count assessed with ultrasound, final","[3]; Patient 3, 12 weeks, baseline 23","23, 4"
same,"Tender joint, final","[3]; Patient 3, 12 weeks, baseline 26","26, 11"
same,"Patient own assessment (0-100), final","[3]; Patient 3, 12 weeks, baseline 50","50, 30"
same,"Physician assessment (0-100), final","[3]; Patient 3, 12 weeks, baseline 90","90, 30"
same,ACR % Response,"[3]; Patient 3, 12 wks",50%
same,ACR % Response,"[3]; Patient 3, treatment duration 12 weeks",50%
same,ACR % Response,"[3]; Patient 4, 3½ wks",20%
same,"Function score (Good <1), final","[3]; Patient 4, 9 weeks, baseline 0.88","0.88, 0.38"
same,"Morning stiffness, final","[3]; Patient 4, 9 weeks, baseline 7","7, 3 hrs"
same,"Swollen joint count assessed with ultrasound, final","[3]; Patient 4, 9 weeks, baseline 24","24, 3"
same,"Tender joint, final","[3]; Patient 4, 9 weeks, baseline 28","28, 11"
same,"Physician assessment (0-100), final","[3]; Patient 4, 9 weeks, baseline 80","80, 40"
same,"Patient own assessment (0-100), final","[3]; Patient 4, 9 weeks, baseline 90","90, 50"
same,ACR % Response,"[3]; Patient 4, 9 wks",50%
same,ACR % Response,"[3]; Patient 4, treatment duration 9 weeks",50%
same,"Function score (Good <1), final","[3]; Patient 5, 7 weeks, baseline 1.29","1.29, 0.88"
same,"Morning stiffness, final","[3]; Patient 5, 7 weeks, baseline 2.5","2.5, ¾"
same,"Swollen joint count assessed with ultrasound, final","[3]; Patient 5, 7 weeks, baseline 10","10, 2"
same,"Tender joint, final","[3]; Patient 5, 7 weeks, baseline 12","12, 0"
same,"Physician assessment (0-100), final","[3]; Patient 5, 7 weeks, baseline 70","70, 20"
same,"Patient own assessment (0-100), final","[3]; Patient 5, 7 weeks, baseline 88, footnote: muscular pain in arms","88, 88^3"
same,Power Doppler (inflammatory activity) on ultrasound of shoulder and MCP 4 joints,"[3]; Patient 5, after treatment, power Doppler present before (FIG. 2)",no power Doppler
same,ACR % Response,"[3]; Patient 5, treatment duration 7 weeks",30%
same,"Function score (Good <1), final","[3]; Patient 6, 36 weeks, baseline 1.5","1.5, 0.625"
same,"Morning stiffness, final","[3]; Patient 6, 36 weeks, baseline 2","2, 0 hrs"
same,"Swollen joint count assessed with ultrasound, final","[3]; Patient 6, 36 weeks, baseline 16","16, 0"
same,"Tender joint, final","[3]; Patient 6, 36 weeks, baseline 24","24, 0"
same,"Patient own assessment (0-100), final","[3]; Patient 6, 36 weeks, baseline 60","60, 7"
same,"Physician assessment (0-100), final","[3]; Patient 6, 36 weeks, baseline 90","90, 7"
same,Effusion over the right wrist on ultrasound,"[3]; Patient 6, by 3.5 weeks of degarelix, large effusion before (FIG. 4)",much smaller
same,ACR % Response,"[3]; Patient 6, treatment duration 36 weeks",80%
